Experimental findings from ChEMBL document CHEMBL4261560, “Structure-optimized dihydropyranoindole derivative GIBH-LRA002 potentially reactivated viral latency in primary CD4+ T lymphocytes of chronic HIV-1 patients” (Medchemcomm, 2017) are described below.

Series [1] concerns Simian immunodeficiency virus. The series is described as follows: Reactivation of Simian immunodeficiency virus mac239 latent provirus in primary CD4+ T lymphocytes isolated from infected rhesus monkey PBMC assessed as increase in usRNA level after 24 hrs by RT-PCR analysis. The series is classed as functional, organism-based.
In series [2] the test system is Human immunodeficiency virus. The series is described as follows: Reactivation of HIV latent provirus in primary CD4+ T lymphocytes isolated from infected human PBMC assessed as increase in usRNA level after 24 hrs by RT-PCR analysis. The series is classed as functional, organism-based.
Series [3] concerns Simian immunodeficiency virus. Briefly: Reactivation of Simian immunodeficiency virus mac239 latent provirus in primary CD4+ T lymphocytes isolated from infected rhesus monkey PBMC assessed as increase in msRNA level after 24 hrs by RT-PCR analysis. The series is classed as functional, organism-based.
For series [4], the system named is Human immunodeficiency virus 1. Briefly: Reactivation of latent HIV1 LTR-GFP infected in human Jurkat-Lat A10.6 cells assessed as GFP-positive cells after 24 hrs by flow cytometry (reference value: 5.06%). The series is classed as functional. Background: A flow cytometer gives signals particle by particle.
For series [5], the system named is Human immunodeficiency virus. Briefly: Reactivation of HIV latent provirus in primary CD4+ T lymphocytes isolated from infected human PBMC assessed as increase in msRNA level after 24 hrs by RT-PCR analysis. The series is classed as functional, organism-based.
For series [6], the system named is Human immunodeficiency virus 1. The series is described as follows: Reactivation of latent HIV1 LTR-GFP infected in human Jurkat-Lat A10.6 cells assessed as GFP-positive cells at 10 uM after 24 hrs by flow cytometry (reference value: 5.06%). The series is classed as functional.
For series [7], the system named is T cell. The series is described as follows: Induction of monkey PBMC CD4+ T cells activation assessed as increase in CD69 expression up to 500 uM after 24 hrs by flow cytometry. The series is classed as cell-based, Macaca mulatta. To be noted: rhesus monkey.
For another series, the system named is PBMC. The series is described as follows: Cytotoxicity against PBMC (unknown origin) assessed as reduction in cell viability up to 500 uM by CCK8 assay. The series is classed as cell-based.
In series [8] the test system is Human immunodeficiency virus. Briefly: Reactivation of HIV latent provirus in primary CD4+ T lymphocytes isolated from infected human PBMC assessed as increase in msRNA level at 10 to 100 uM after 24 hrs by RT-PCR analysis. The series is classed as functional, organism-based.
Series [9] deals with T cell. Briefly: Induction of monkey PBMC CD3+ T cells activation assessed as increase in CCR5 expression up to 500 uM after 24 hrs by flow cytometry. The series is classed as cell-based, Macaca mulatta. To be noted: rhesus monkey.
The nature of series [10]: Cytotoxicity against human J-Lat cells. The series is classed as cell-based.
In series [11] the test system is T cell. The series is described as follows: Induction of monkey PBMC CD3+ T cells activation assessed as increase in CD25 expression up to 500 uM after 24 hrs by flow cytometry. The series is classed as cell-based, Macaca mulatta. To be noted: rhesus monkey.
The test system of series [12] is Human immunodeficiency virus 1. Briefly: Reactivation of latent HIV1 LTR-GFP infected in human Jurkat-Lat A10.6 cells assessed as GFP-positive cells at 100 uM after 24 hrs by flow cytometry (reference value: 5.06%). The series is classed as functional.
Series [13] relates to Human immunodeficiency virus. The series is described as follows: Reactivation of HIV latent provirus in primary CD4+ T lymphocytes isolated from infected human PBMC assessed as increase in usRNA level at 10 to 100 uM after 24 hrs by RT-PCR analysis. The series is classed as functional, organism-based.
For series [14], the system named is T cell. Briefly: Induction of monkey PBMC CD4+ T cells activation assessed as increase in CCR5 expression up to 500 uM after 24 hrs by flow cytometry. The series is classed as cell-based, Macaca mulatta. To be noted: rhesus monkey.
Series [15] has as its system T cell. The series is described as follows: Induction of monkey PBMC CD3+ T cells activation assessed as increase in CD69 expression up to 500 uM after 24 hrs by flow cytometry. To be noted: rhesus monkey. The series is classed as cell-based, Macaca mulatta.
The test system of series [16] is T cell. Briefly: Induction of monkey PBMC CD4+ T cells activation assessed as increase in CD25 expression up to 500 uM after 24 hrs by flow cytometry. To be noted: rhesus monkey. The series is classed as cell-based, Macaca mulatta.
The test system of series [17] is Human immunodeficiency virus 1. Briefly: Reactivation of latent HIV1 LTR-GFP infected in human Jurkat-Lat A10.6 cells assessed as increase in GFP-positive cells after 24 hrs by flow cytometry relative to control. The series is classed as functional.
Series [18] can be described thus: Cytotoxicity against human J-Lat cells at 100 uM. The series is classed as cell-based.

Calls of active or inactive are those of the source. The calls are words filed in the database; no cut-off is given here.

In the case of `CCCC(CCC)C(=O)O` [VALPROIC ACID], the outcome in [1], in [2], in series [3] and in [5] was inactive. Also, the Activity in series [4] came to 25.7%.
As to `CCOC(=O)C1(C(F)(F)F)C(C#N)=C(N)Oc2c1c1ccccc1n2C` (configuration not stated), the Activity in [6] was 9.16%; with T cell [7], “Non-Toxic”; with PBMC, “Non-Toxic”; in series [1] it was “Dose-dependent effect”; in the series with T cell [9], “Non-Toxic”; in [3], “Dose-dependent effect”. The Activity result with T cell [11] is “Non-Toxic”; in series [12] it was 23%; with T cell [14] it was “Non-Toxic”; in the series on T cell [15] it was “Non-Toxic”; in the series with T cell [16], “Non-Toxic”. The result in series [8] and in [13] was Active. The “fold change (FC)” value in series [10] is reported as 1.3; in series [17], 4.4.
In the case of `CCOC(=O)[C@@]1(C(F)(F)F)C(C#N)=C(N)Oc2c1c1ccccc1n2C(=O)OC(C)(C)C`, the Activity entry in [18] is given as “Toxic”. For the same compound, the “fold change (FC)” value in series [17] was 1.5.
Consider `CCOC(=O)C1(C(F)(F)F)C(C#N)=C(N)Oc2c1c1ccccc1n2C(=O)OC(C)(C)C` (racemic), for which the “fold change (FC)” value in series [10] is on record as 1.8; in series [17] it was 2.6.
Regarding `COC(=O)C1(C(F)(F)F)C(C#N)=C(N)Oc2c1c1ccccc1n2C(=O)OC(C)(C)C` (configuration not stated), the figures for the “fold change (FC)” value in series [10] and in series [17] were 2.6 and 2.1, respectively.
For the compound `CCOC(=O)C1(C(F)(F)F)C(C#N)=C(N)Oc2[nH]c3ccccc3c21` (configuration not stated), the Activity result in series [18] was “Toxic”. For the same compound, in series [17], the “fold change (FC)” value was determined as 2.
As to `CC(C)(C)OC(=O)n1c2c(c3ccccc31)C(C(F)(F)F)C(C#N)=C(N)O2` (configuration not stated), the figures for the “fold change (FC)” value in series [10] and in series [17] were 3 and 0.25, respectively.
Consider `CCOC(=O)C1(C(F)(F)F)C(C#N)=C(N)Oc2c1c1ccccc1n2Cc1ccccc1` (configuration not stated), for which, in series [18], the Activity entry is on record as “Toxic”. The “fold change (FC)” value in [17] was 1.9.
